# Earlier results in patent US20190105332A1, “METHODS OF TREATING PROSTATE CANCER” (Janssen Oncology, Inc., priority 2017, published 2019).
# Like-named read-outs stand apart in the source and are kept apart here.
# Experiments:
# [1] = target: T1, CYP2D6 (Homo sapiens, UniProt P10635)
# T1 construct: from tissue; host or cells: in vivo, trial participants (endogenous hepatic enzyme)
# [2] = target: T2, CYP1A2 (Homo sapiens, UniProt P05177); conditions: abiraterone acetate 1,000 mg daily plus prednisone 5 mg twice daily; single 100 mg theophylline
# T2 sequence (P05177 1-516): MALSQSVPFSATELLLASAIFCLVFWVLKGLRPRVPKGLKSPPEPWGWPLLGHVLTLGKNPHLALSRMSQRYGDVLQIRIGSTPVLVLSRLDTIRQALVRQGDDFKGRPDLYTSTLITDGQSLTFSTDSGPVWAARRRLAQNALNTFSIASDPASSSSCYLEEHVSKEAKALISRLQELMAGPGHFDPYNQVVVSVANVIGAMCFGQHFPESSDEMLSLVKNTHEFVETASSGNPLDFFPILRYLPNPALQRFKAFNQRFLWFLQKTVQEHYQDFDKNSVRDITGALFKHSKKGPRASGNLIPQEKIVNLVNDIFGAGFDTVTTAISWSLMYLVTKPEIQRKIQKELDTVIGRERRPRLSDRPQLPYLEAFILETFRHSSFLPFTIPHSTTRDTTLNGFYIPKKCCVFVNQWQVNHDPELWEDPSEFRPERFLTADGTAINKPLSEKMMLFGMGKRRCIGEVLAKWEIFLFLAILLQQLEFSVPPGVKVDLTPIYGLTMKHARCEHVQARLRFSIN
# [3] = target: P-glycoprotein (P-gp) (Homo sapiens, UniProt P08183); conditions: in vitro
# [4] = not given; remark: listed apart in the source
# [5] = 6-month study
# [6] = tested on: primary human lymphocytes
# [7] = rat micronucleus assay
# [8] = not given; remark: listed apart in the source
# [9] = not given; remark: listed apart in the source
# [10] = not given; remark: listed apart in the source
# [11] = not given; remark: listed apart in the source
# [12] = not given; remark: listed apart in the source
# [13] = not given; remark: listed apart in the source
# [14] = target: T3, CYP2C8 (Homo sapiens, UniProt P10632); design: from tissue; host or cells: in vivo, healthy human subjects (endogenous enzyme); conditions: healthy subjects; single dose of 1,000 mg abiraterone acetate
# T3 sequence (P10632 1-490): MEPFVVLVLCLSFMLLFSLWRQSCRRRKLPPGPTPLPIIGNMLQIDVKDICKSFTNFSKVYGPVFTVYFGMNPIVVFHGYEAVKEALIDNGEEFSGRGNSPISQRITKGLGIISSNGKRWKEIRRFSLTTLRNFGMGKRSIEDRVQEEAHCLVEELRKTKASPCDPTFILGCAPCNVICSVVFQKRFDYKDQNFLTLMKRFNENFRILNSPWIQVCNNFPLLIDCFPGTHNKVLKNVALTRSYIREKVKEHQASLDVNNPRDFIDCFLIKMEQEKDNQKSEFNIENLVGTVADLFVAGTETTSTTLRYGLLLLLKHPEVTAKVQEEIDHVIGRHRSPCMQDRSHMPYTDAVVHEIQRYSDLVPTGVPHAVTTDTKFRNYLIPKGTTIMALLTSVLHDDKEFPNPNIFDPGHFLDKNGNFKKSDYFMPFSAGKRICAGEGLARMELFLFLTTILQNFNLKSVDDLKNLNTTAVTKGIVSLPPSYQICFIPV
# [15] = abiraterone acetate 1,000 mg daily and prednisone 5 mg twice daily
# [16] = oral, 2 weeks until day 7 of pregnancy
# T1 sequence (P10635 whole entry): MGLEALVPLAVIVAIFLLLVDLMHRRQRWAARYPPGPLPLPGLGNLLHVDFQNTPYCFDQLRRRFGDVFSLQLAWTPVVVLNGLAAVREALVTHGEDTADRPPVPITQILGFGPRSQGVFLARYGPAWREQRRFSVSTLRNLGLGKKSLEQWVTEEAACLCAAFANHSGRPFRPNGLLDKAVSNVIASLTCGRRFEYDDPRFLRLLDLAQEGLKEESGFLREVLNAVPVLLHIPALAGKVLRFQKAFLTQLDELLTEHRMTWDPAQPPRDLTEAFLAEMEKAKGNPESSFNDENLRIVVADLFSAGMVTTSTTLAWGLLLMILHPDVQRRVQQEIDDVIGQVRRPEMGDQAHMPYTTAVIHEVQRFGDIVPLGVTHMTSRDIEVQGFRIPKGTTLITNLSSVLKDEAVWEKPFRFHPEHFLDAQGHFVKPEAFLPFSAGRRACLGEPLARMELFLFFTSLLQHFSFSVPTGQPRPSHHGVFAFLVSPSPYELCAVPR
# Sequence of P-glycoprotein (P-gp) (P08183 whole entry): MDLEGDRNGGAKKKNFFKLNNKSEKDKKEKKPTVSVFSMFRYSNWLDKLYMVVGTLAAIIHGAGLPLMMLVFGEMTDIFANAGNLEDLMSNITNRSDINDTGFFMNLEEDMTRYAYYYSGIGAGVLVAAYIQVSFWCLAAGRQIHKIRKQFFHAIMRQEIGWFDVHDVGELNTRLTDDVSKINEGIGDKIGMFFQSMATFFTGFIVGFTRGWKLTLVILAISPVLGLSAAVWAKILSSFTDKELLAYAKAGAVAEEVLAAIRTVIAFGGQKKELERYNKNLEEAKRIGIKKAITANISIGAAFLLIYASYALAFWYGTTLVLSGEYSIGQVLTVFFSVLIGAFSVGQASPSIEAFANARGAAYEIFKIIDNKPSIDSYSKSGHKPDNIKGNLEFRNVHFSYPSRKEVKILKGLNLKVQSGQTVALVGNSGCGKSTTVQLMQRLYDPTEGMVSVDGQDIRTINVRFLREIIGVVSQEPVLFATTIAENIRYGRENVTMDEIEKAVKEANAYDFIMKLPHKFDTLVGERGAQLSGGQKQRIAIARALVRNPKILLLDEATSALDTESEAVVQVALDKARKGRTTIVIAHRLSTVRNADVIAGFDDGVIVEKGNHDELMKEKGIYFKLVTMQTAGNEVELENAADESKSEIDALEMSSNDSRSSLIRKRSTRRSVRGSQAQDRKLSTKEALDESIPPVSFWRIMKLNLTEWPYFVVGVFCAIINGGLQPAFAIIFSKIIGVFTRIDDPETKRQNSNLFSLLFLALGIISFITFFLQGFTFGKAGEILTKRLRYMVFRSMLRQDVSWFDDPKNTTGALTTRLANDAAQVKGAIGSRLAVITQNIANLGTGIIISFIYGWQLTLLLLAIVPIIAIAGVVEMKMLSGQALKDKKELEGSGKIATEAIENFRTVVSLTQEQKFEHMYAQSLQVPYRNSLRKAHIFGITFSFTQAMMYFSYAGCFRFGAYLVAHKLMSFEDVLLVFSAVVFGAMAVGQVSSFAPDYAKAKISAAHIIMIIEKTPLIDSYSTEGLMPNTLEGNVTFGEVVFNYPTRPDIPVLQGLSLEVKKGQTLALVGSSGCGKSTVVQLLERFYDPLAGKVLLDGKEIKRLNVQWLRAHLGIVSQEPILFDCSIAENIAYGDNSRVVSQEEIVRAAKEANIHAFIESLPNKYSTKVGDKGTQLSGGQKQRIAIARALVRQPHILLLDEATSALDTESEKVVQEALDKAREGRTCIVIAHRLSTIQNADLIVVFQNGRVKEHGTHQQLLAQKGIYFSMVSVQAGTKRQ
smiles,measurement,setting,value
"CC(=O)O[C@H]1CC[C@@]2(C)C(=CC[C@@H]3[C@@H]2CC[C@]2(C)C(c4cccnc4)=CC[C@@H]32)C1 [abiraterone acetate, (3β)-17-(3-pyridinyl) androsta-5,16-dien-3-yl acetate]",increase in AUC of dextromethorphan (CYP2D6 substrate),[1]; [15],2.9 fold
same,increase in Cmax of dextromethorphan (CYP2D6 substrate),[1]; [15],2.8 fold
same,increase in AUC for dextrorphan,"[1]; abiraterone acetate 1,000 mg daily plus prednisone 5 mg twice daily",approximately 1.3 fold
same,systemic exposure of theophylline (CYP1A2 substrate),[2],no increase
same,inhibition of P-gp,[3],inhibitor
same,substrate of P-glycoprotein (P-gp),[3]; clinically relevant concentrations,not substrates
same,octanol-water partition coefficient (Log P),,5.12
same,pKa of the aromatic nitrogen,,5.19
same,solubility in water,,practically insoluble
same,carcinogenicity in female rats,[4]; exposure levels up to 0.8 times the human clinical exposure based on AUC,not carcinogenic
same,carcinogenicity in male rats,"[4]; oral 5, 15, and 50 mg/kg/day","increased the combined incidence of interstitial, cell adenomas and carcinomas in the testes at all dose levels tested"
same,carcinogenicity,[5],not carcinogenic
same,clastogenicity in vitro,[6],not mutagenic in an in vitro microbial mutagenesis (Ames) assay or clastogenic
same,clastogenicity in vivo,[7],not mutagenic in an in vitro microbial mutagenesis (Ames) assay or clastogenic
same,exposure at which a reduction in circulating testosterone levels occurred,[8]; 13- and 26-week studies,approximately one half the human clinical exposure
same,doses with dose-dependent increase in cataracts,"[8]; daily oral, 26 weeks, similar to the human clinical exposure based on AUC",≥ 50 mg/kg/day
same,"doses with atrophy, aspermia/hypospermia, and hyperplasia in the reproductive system","[8]; male rats, 13- and 26-weeks",≥ 50 mg/kg/day
same,exposure at which a reduction in circulating testosterone levels occurred,[9]; 13- and 39-week studies,approximately one half the human clinical exposure
same,cataracts,"[9]; 39-week, daily oral, 2 times greater than the clinical exposure based on AUC",no cataracts were observed
same,"doses with atrophy, aspermia/hypospermia, and hyperplasia in the reproductive system",[9]; 39-weeks,≥ 250 mg/kg/day
same,"30 mg/kg/day in rats relative to the recommended dose of 1,000 mg/day",[10]; based on body surface area,approximately 0.3 times
same,"doses with reduced reproductive organ weights, sperm counts, sperm motility, altered sperm morphology and decreased fertility",[10]; dosed orally for 4 weeks,≥ 30 mg/kg/day
same,time after last administration at which effects on male rats were reversible,"[10]; rat, in vivo",16 weeks
same,dose with pre-implantation loss,[11]; [16],300 mg/kg/day
same,doses with increased incidence of irregular or extended estrous cycles,[11]; [16],≥ 30 mg/kg/day
same,"mating, fertility, and litter parameters","[11]; rat, in vivo",no differences
same,time after last administration at which effects on female rats were reversible,"[11]; rat, in vivo",4 weeks
same,conversion to abiraterone,[12]; likely through esterase activity,not CYP mediated
same,"compound present in feces, share of the administered dose",[12]; oral 14C-abiraterone acetate,approximately 55%
same,radioactive dose recovered in feces,[12]; oral administration,approximately 88%
same,radioactive dose recovered in urine,[12]; oral administration,approximately 5%
same,systemic exposure (AUC) relative to the AUC in patients,[13]; 100 mg/kg/day,~0.3 times
same,dose with decreased fetal body weight,"[13]; oral, gestational days 6-17",100 mg/kg/day
same,doses that caused maternal toxicity,"[13]; oral, gestational days 6-17",≥ 10 mg/kg/day
same,doses with decreased fetal ano-genital distance,"[13]; oral, gestational days 6-17",≥ 30 mg/kg/day
same,"doses with embryo-fetal lethality, fetal developmental delay and urogenital effects","[13]; rat, in vivo, po",≥ 10 mg/kg/day
same,increase in AUC of pioglitazone (CYP2C8 substrate),[14],46%
